Laboratory results reported in US11129820B2, “Ferroportin-inhibitor salts” (Vifor (International) AG, priority 2017, dated 2021).
Where “and” joins values, the source holds several entries; their conditions need not be identical. Identical values can stand only once. Marks after values point to notes of the source that are not given here.

Key:
naïve WT C57BL/6 mice = experiment: Hypoferremia in naïve mice; format: in vivo, mouse; settings: Mus musculus, po, 3 h, relative to vehicle, read-out: Serum Iron Reduction at 3 h (%); for inhibition in vivo at 10 mg/kg: Dose 10 mg/kg p.o.; for inhibition in vivo at 30 mg/kg: Dose 30 mg/kg p.o.; for inhibition in vivo at 100 mg/kg: Dose 100 mg/kg p.o.
Protocol: Injection of synthetic hepcidin in wild-type (WT) naïve mice results in a reduction of serum iron levels (40-50% from the vehicle control) with a maximal effect at 3-4 hours post treatment (Rivera, 2005; FIG. 12A).
Female C57BL/6 mice (Janvier, France) at age of 9 weeks are fed a standard diet (Harlan Provimi Kliba 3436) and treated per os (p.o.) with compounds or the corresponding amount of vehicle at a volume of 10 ml/kg body weight. Fpn inhibitors are formulated in 0.5% methylcellulose/water or 20% cremophor EL/water and dosed p.o. in mice at 10, 30 or 100 mg/kg body weight. Three hours later, mice are pre-terminally anesthetized in isoflurane chambers and blood is collected by retro-orbital bleeding. Mice are sacrificed by cervical dislocation and spleens, livers and duodena were harvested and used for biomarker analysis. All experiments are conducted in compliance with the license approved by the responsible veterinarian authorities. Serum is isolated by centrifugation of blood into gel-containing microtainers and serum iron is determined by the MULTIGENT Iron assay (Abbott Diagnostics, 6K95). Eight mice per group are used and one-way ANOVA with Bonferroni's multiple comparison test is performed to analyze the statistical differences between the experimental groups.
Table 6 Efficacy of Fpn inhibitors tested in the naïve mouse hypoferremia model. Serum iron reduction induced by selected ferroportin inhibitors dosed p.o. in naïve WT C57BL/6 mice at 10, 30 and 100 mg/kg. Relative serum iron reduction at 3 h after dosing was calculated by subtracting the average of serum iron values of animals dosed with the Fpn inhibitor from that of vehicle-treated animals. The difference in average serum iron values between vehicle and compound treated groups was then divided by the average of serum iron of the vehicle control group and listed as percentage.

[1] = test system: beta2-microglobulin deficient (b2m−/−) mice; experiment: Correction of hyperferremia in beta2-microglobulin deficient mice; format: in vivo, mouse
Protocol: Female and male homozygous b2m−/− mice are supplied from Jackson Laboratories (B6.129P2-B2mtm1Unc/J, Stock Number: 002087) at age of 6 to 7 weeks and fed standard diet (Harlan Provimi Kliba 3436) ad libitum. Age and gender matched WT C57BL/6 mice are supplied by Charles River. To study the acute effects of ferroportin (Fpn) inhibitors in iron overload b2m−/− mice are treated with compounds or the corresponding amount of vehicle at a volume of 10 ml/kg body weight. Fpn inhibitor compounds are formulated in 0.5% methylcellulose/water or 20% cremophor EL/water and dosed p.o. in mice at 50 mg/kg body weight. WT controls received only vehicle. Three hours later, mice are pre-terminally anesthetized in isoflurane chambers and blood is collected by retro-orbital bleeding. Mice are sacrificed by cervical dislocation and spleens, livers and duodena are harvested and used for biomarker analysis. All experiments are performed in compliance with license approved by the responsible veterinarian authorities. Serum is isolated by centrifugation of blood into gel-containing microtainers (BD Biosciences) and serum iron is determined by the MULTIGENT Iron assay (Abbott Diagnostics, Cat. 6K95). Four to nine mice per group are used and one-way ANOVA with Bonferroni's multiple comparison test is applied to analyze the statistical differences between the experimental groups.
Blood is collected 1 (#) or 3 (##) hours after oral administration of the indicated doses of Fpn inhibitors to beta2-microglobulin deficient mice and serum iron concentrations are measured. Relative reduction (%) of serum iron levels are shown, which were calculated by subtracting the average of serum iron values of animals dosed with the Fpn inhibitor from that of vehicle-treated animals. The difference in average serum iron values between vehicle and compound treated groups was then divided by the average of serum iron of the vehicle control group and listed as percentage. Values are listed separately for female (♀) and male (♂) animals, because a marked sex-dependent difference in efficacy was noted. Statistically significant (2-way ANOVA with Bonferroni post test) differences observed between compound-treated and vehicle-treated groups are indicated (*** p<0.001; ** p<0.01, p<0.05).

[2] = test system: beta2-microglobulin deficient (b2m−/−) mice; experiment: Prevention of iron overload in beta2-microglobulin deficient mice; format: in vivo, mouse; settings: 14 days
Protocol: In addition, feeding 3 week old b2m−/− mice a diet with low iron content (LID) immediately after weaning prevents liver iron loading by age of 6-7 weeks. The efficacy of the Fpn inhibitors to prevent liver iron accumulation in b2m−/− mice is investigated. Three weeks old b2−/− mice fed LID are dosed with either Fpn inhibitor or vehicle (methylcellulose; 10 ml/kg). Mice have access to drinking water supplemented with 1 mM ^58Fe(II)-sulfate and 10 mM ascorbic acid. Dosing of Fpn inhibitor or vehicle followed by exposure to iron-containing water is repeated for 14 days. Mice are euthanized and the liver and spleen iron contents are analyzed by ICP-OES (all iron isotopes) and liver tissue is also analyzed for ^58Fe concentration (ICP-MS).
Livers and spleens are collected after 14 day treatment (p.o.; b.i.d) of beta2-microglobulin deficient mice with the indicated doses of Fpn inhibitors. Total liver and spleen tissue iron concentrations are measured using ICP-OES and ^58Fe liver concentrations are determined with ICP-MS. Relative changes (%) of tissue iron levels are calculated by normalizing the difference between the averages of tissue iron values of animals dosed with the Fpn inhibitors and those of vehicle-treated animals with the average of vehicle controls.

anemic Wistar rats = experiment: Prevention of iron absorption in anemic rats; format: in vivo, rat; settings: n=5
Protocol: To assess the in vivo efficacy of ferroportin (Fpn) inhibitors to block iron absorption, a series of Fpn inhibitors is tested in an anemic rat model for iron absorption. Wistar rats (3-4 weeks old, n=5, Janvier Labs) are fed a low iron diet (Provimi-Kliba, Cat. 2039) until their hemoglobin (Hb) values reach 7-8 g/dl one day before dosing of the Fpn inhibitor compounds. One hour before oral application of 0.5 mg/kg of ferrous sulfate, test compounds formulated in methyl cellulose or Cremophor are dosed orally. Blood samples are taken by tail vein puncture one hour before administration of iron (−1 h), immediately after dosing of the Fpn inhibitors (0 h) and one hour (1 h), three hours (3 h) and occasionally up to 6 hours (6 h) after dosing of the test compounds. Serum iron levels are measured (Abbott Diagnostics, Cat. 6K95) and inhibition of the rise of serum iron three hours after dosing of the test compound is calculated as a measure for efficacy of the Fpn inhibitors in blocking iron absorption (Table 7).

[3] = female ♀, 20 mg/kg oral, blood collection time not marked
[4] = female ♀, 60 mg/kg oral, blood collection time not marked
[5] = male ♂, 20 mg/kg oral, blood collection time not marked
[6] = male ♂, 60 mg/kg oral, blood collection time not marked

SMILES | inhibition in vivo at 10 mg/kg (naïve WT C57BL/6 mice) [%] | inhibition in vivo at 30 mg/kg (naïve WT C57BL/6 mice) [%] | inhibition in vivo at 100 mg/kg (naïve WT C57BL/6 mice) [%] | Serum Iron Reduction (%) [1, 3] | Serum Iron Reduction (%) [1, 4] | Serum Iron Reduction (%) [1, 5] | Serum Iron Reduction (%) [1, 6] | Total Liver Iron Reduction (%) ([2]; female ♀, 20 mg/kg p.o. b.i.d.) | Total Spleen Iron Increase (%) ([2]; female ♀, 20 mg/kg p.o. b.i.d.) | ^58Fe Liver Iron Reduction (%) ([2]; female ♀, 20 mg/kg p.o. b.i.d.) | Total Liver Iron Reduction (%) ([2]; female ♀, 60 mg/kg p.o. b.i.d.) | Total Spleen Iron Increase (%) ([2]; female ♀, 60 mg/kg p.o. b.i.d.) | ^58Fe Liver Iron Reduction (%) ([2]; female ♀, 60 mg/kg p.o. b.i.d.) | Total Liver Iron Reduction (%) ([2]; male ♂, 20 mg/kg p.o. b.i.d.) | Total Spleen Iron Increase (%) ([2]; male ♂, 20 mg/kg p.o. b.i.d.) | ^58Fe Liver Iron Reduction (%) ([2]; male ♂, 20 mg/kg p.o. b.i.d.) | Total Liver Iron Reduction (%) ([2]; male ♂, 60 mg/kg p.o. b.i.d.) | Total Spleen Iron Increase (%) ([2]; male ♂, 60 mg/kg p.o. b.i.d.) | Serum Iron Inhibition (%) at 3 h (anemic Wistar rats; Dose 10 mg/kg oral) | Serum Iron Inhibition (%) at 3 h (anemic Wistar rats; Dose 30 mg/kg oral) | also measured
O=C(NCc1ncccc1F)c1cnc(CCNCCc2nc3ccccc3[nH]2)o1 [Example Compound No. 1] | 0 | 28 | 51 | 31** % | 52** % | 31** % | 59** % | −1 | 21% | 4% | 15 | 65 | 59% | 16 | 28 | −8% | 25 | 49 | 42.6** % | 64.9*** % | ^58Fe Liver Iron Reduction (%) ([2]; male ♂, 60 mg/kg p.o. b.i.d.): 22%; Serum Iron Inhibition (%) at 3 h (anemic Wistar rats; Dose 3 mg/kg oral): 2.1%
O=C(NCc1ncccc1F)c1cnc(C2CN(CCc3nc4ccccc4[nH]3)C2)o1 [Example Compound No. 2] | 9 | 26 | 50 | 27% | 57** % | 29% | 66** % | 26 | 13% | 60** % | 45 | 1 | 77*** % | 10 | 18 | 24% | 28 | −20 | 29** % | 57*** % | ^58Fe Liver Iron Reduction (%) ([2]; male ♂, 60 mg/kg p.o. b.i.d.): 70%; Serum Iron Inhibition (%) at 3 h (anemic Wistar rats; Dose 3 mg/kg oral): −3%
O=C(NCc1ncccc1F)c1csc(CCNCc2nc3ccccc3[nH]2)n1 [Example Compound No. 40] | 10 | 30 | 50 |  |  |  |  | 32 | 50* % | 44% |  |  |  | 31 |  | 53* % |  |  | 32** % | 53*** % | Correction of elevated serum iron, in words ([1]; b2m−/− mice, 50 mg/kg p.o., 3 h): corrected the elevated serum iron to the levels observed in WT controls; Serum Iron Reduction (%) ([1]; female ♀, 20 mg/kg oral, 1 hour (#)): 0%; Serum Iron Reduction (%) ([1]; female ♀, 60 mg/kg oral, 1 hour (#), 60 mg/kg): 13% and 10%; Serum Iron Reduction (%) ([1]; male ♂, 20 mg/kg oral, 1 hour (#)): 35** %; Serum Iron Reduction (%) ([1]; male ♂, 60 mg/kg oral, 1 hour (#), 60 mg/kg): 32** % and 58** %; Serum Iron Inhibition (%) at 3 h (anemic Wistar rats; Dose 100 mg/kg oral): 97*** %
